Where two headings read alike, the source gives them in different places.
Tests used:
[1] = human, in vivo, 4 mg
Description: (§1) Glimepiride (4 mg) was orally administered once daily on days 1–2 during period 1. Subsequently, the 4.35 g/pack of OJS was orally administered three times a day on days 4–11 during period 2, and glimepiride (4 mg) was co-administered once a day on days 9–10 during period 2. Glimepiride (4 mg) was administered at approximately 12:00 PM on days 1 and 9 and at approximately 8:00 AM on days 2 and 10. The 4.35 g/pack of OJS was administered thrice a day at 7:00–10:00 AM, 12:00–03:00 PM, and 6:00–9:00 PM on days 4–11. However, during hospitalization, OJS was administered at approximately 7:00 AM on days 9–10, just 1 h before glimepiride administration.
(§2) For the PK analysis of glimepiride, blood samples were collected immediately before the glimepiride administration on days 1 and 9 on the first day of each period. On days 2 and 10, blood samples were collected immediately before glimepiride administration (0 h) and 0.25, 0.5, 1, 1.5, 2, 2.5, 3, 3.5, 4, 5, 6, 8, 12, 15, 24, and 48 h after glimepiride administration.
(§3) The analyte was separated using a YMC hydrosphere C18 (50 × 2.0 mm, 3 μm; YMC, USA) at 40 ℃. The mobile phase consists of 5 mM ammonium formate and 100% acetonitrile (20:80, v/v) with a flow rate of 180 µL/min. The compounds were detected in the positive mode using an electrospray ionization source. […] A linear response of glimepiride was shown in the range of 2 to 1000 ng/mL (r^2 ≥ 0.9970), and the lower limit of quantification was determined as 2 ng/mL.
(§4) PK parameters were calculated using the noncompartmental method in Phoenix WinNonlin 8.3 (Certara USA Inc., Princeton, NJ, USA). […] The terminal elimination rate constant (kz) was estimated from the regression of the log-linear decrease in the plasma concentration-time profile. The terminal elimination half-life (t1/2) was calculated as the natural logarithm of 2 divided by kz. The area under the plasma concentration-time curve (AUC) from dosing to 24 h post-dosing (AUC0–24 h) and AUC0–48 h from dosing to 48 h post-dosing were calculated using the linear/log trapezoidal rule. The AUC from 0 to infinity (AUCinf) was calculated as AUC0–24 h + C24 / kz, where kz is the terminal elimination rate constant estimated from linear regression of the terminal phase of the log-linear plot of the plasma concentration-time curve. The metabolic ratio was calculated by dividing the M1 AUC0–24 h by glimepiride AUC0–24 h.
(§5) All statistical analyses were performed using SAS 9.4 (SAS Institute Inc. Cary, NC, USA). Descriptive statistics were calculated for continuous variables.

[2] = Pharmacokinetics of glimepiride and M1 in plasma, glimepiride alone versus with Ojeok-san, clinical crossover study; conditions: for Reduction of mean Cmax with OJS compared to glimepiride monotherapy: absorption phase; for CL/F / t1/2,0–24 h / t1/2,0–48 h / AUC(0-t) / half-life: mean ± SD; for Geometric mean ratio of AUC0–24 h (%, 90% CI) / Geometric mean ratio of AUC0–48 h (%, 90% CI) / Geometric mean ratio of AUCinf (%, 90% CI) / Geometric mean ratio of Cmax (%, 90% CI): glimepiride and OJS co-administration to glimepiride alone; for Tmax: median (min–max)
Description: as §1, §2, §3, §4, §5

[3] = cited from earlier work
[4] = system: healthy male subjects; test: Safety and tolerability (adverse events) in healthy male subjects; type: in vivo, human
Description: Safety and tolerability were assessed during the study period. The occurrence of AEs was monitored, and the investigators assessed its causal relationship with the study drugs. Vital signs, 12-lead electrocardiography (ECGs), physical examinations, and laboratory tests were performed and reviewed.

[5] = system: serum glucose concentration; test: Oral glucose tolerance test (pharmacodynamics) before and after glimepiride with or without OJS; conditions: glucose 50 g (glimepiride alone), 75 g (with OJS)
Description: Oral glucose tolerance tests (OGTT) were performed before and after glimepiride administration on days 1 and 9, and days 2 and 10, respectively, to assess the PD effects (Supplementary information).
The PD parameters included the maximum serum glucose concentration (Gmax), 2-hour serum glucose level (PP2), and area under the glucose concentration-time curve for 4 h after glucose administration (AUG0–4 h), which was calculated using the linear trapezoidal rule. The change values of Gmax, PP2, and AUG0–4 h were calculated by subtracting the baseline serum glucose concentrations from the corresponding post-administration values at each time point, following glimepiride administration with or without OJS. The maximum of these difference values was defined as the change in Gmax, and the value at 2 h as the change in PP2. The area under the curve from 0 to 4 h was calculated using linear trapezoidal method and defined as change in AUG0 − 4 h. Additionally, the percent change (%change) was calculated as: 100×(change value / baseline value).
The initial protocol stipulated the administration of 75 g of glucose; however, due to a lapse in protocol adherence by the administering clinical research nurse, which involved an incorrect glucose dosage of 50 g stemming from a failure to accurately verify the medication label, a deviation occurred (a report of this protocol violation was filed with the Institutional Review Board). Consequently, the plasma glucose assessment post-glimepiride monotherapy was conducted using 50 g of glucose, whereas the evaluation of the combined effect of glimepiride and OJS during the second admission utilized 75 g of glucose, introducing variance in glucose exposure across the two evaluations.

[6] = system: glucose; design: method as in PMID 33262578; conditions: 4 mg glimepiride, 75 g glucose load; cited from earlier work
[7] = glimepiride 4 mg qd + OJS 4.35 g tid, N = 13
[8] = glimepiride 4 mg qd alone, N = 16
[9] = glimepiride administered with a meal
[10] = OGTT after glimepiride, mean ± SD
[11] = male, human, plasma, oral, 4 mg

CCC1=C(C)CN(C(=O)NCCc2ccc(S(=O)(=O)NC(=O)NC3CCC(CO)CC3)cc2)C1=O (stereo not drawn) [M1, hydroxy glimepiride]
AUC0–24 h [1]: 237.85 ± 61.69 ng·h/mL
AUC0–48 h [1]: 243.05 ± 70.10 ng·h/mL
AUCinf [1]: 258.17 ± 67.99 ng·h/mL
Cmax [1]: 32.61 ± 8.08 ng/mL
Tmax [1]: 5.0 (3.0–6.0) h
Reduction of mean Cmax with OJS compared to glimepiride monotherapy [2]: ~14.67%
CL/F [2, 7]: 17.13 ± 4.89 L/h
t1/2,0–24 h [2, 7]: 8.04 ± 2.95 h
t1/2,0–48 h [2, 7]: 8.02 ± 2.80 h
CL/F [2, 8]: 16.40 ± 4.00 L/h
t1/2,0–24 h [2, 8]: 6.73 ± 1.35 h
t1/2,0–48 h [2, 8]: 7.08 ± 1.97 h
Geometric mean ratio of AUC0–24 h (%, 90% CI) [2]: 91.77 (85.53–98.46) %
Geometric mean ratio of AUC0–48 h (%, 90% CI) [2]: 92.48 (85.29–100.26) %
Geometric mean ratio of AUCinf (%, 90% CI) [2]: 95.05 (89.10–101.40) %
Geometric mean ratio of Cmax (%, 90% CI) [2]: 85.33 (77.77–93.62) %

CCC1=C(C)CN(C(=O)NCCc2ccc(S(=O)(=O)NC(=O)N[C@H]3CC[C@H](C)CC3)cc2)C1=O [Glimepiride]
Metabolites recovered in the urine [3]: approximately 60%
Reduction of mean AUC ([3]; co-administered with aspirin): 34%
Reduction of mean Cmax ([3]; co-administered with aspirin): 4%
Time to peak plasma concentrations ([3]; following oral administration): 2 to 3 h
Decrease of mean AUC [3, 9]: 9%
Decrease of mean Cmax [3, 9]: 8%
Reduction of AUC ([3]; with colesevelam): 18%
Reduction of Cmax ([3]; with colesevelam): 8%
Subjects reporting adverse events ([4]; period 1 (glimepiride alone), 6 out of 16 subjects): 37.5%
Subjects reporting adverse events ([4]; period 2 (OJS with glimepiride), 2 out of 13 subjects): 15.4%
PP2, Post- ([5]; 2-hour serum glucose after glimepiride, mean ± SD): 95.75 ± 29.96 mg/dL
AUG0–4 h % Change ([5]; 100×(change value / baseline value)): 16.15 ± 5.07%
AUG0–3h, Post- [5, 10]: 334.12 ± 44.24 mg·h/dL
Gmax, Post- [5, 10]: 173.88 ± 20.38 mg/dL
AUG0–3h % Change [5]: 15.54 ± 5.82%
Gmax % Change [5]: 25.48 ± 8.23%
PP2 % Change [5]: 16.88 ± 14.00%
AUG0–3h Change ([5]; post- versus pre-glimepiride): 61.07 ± 29.20 mg·h/dL
AUG0–4 h Change ([5]; post- versus pre-glimepiride): 77.01 ± 32.47 mg·h/dL
Gmax Change ([5]; post- versus pre-glimepiride): 45.63 ± 16.39 mg/dL
PP2 Change ([5]; post- versus pre-glimepiride): 17.94 ± 13.67 mg/dL
AUG0–3 h after glimepiride treatment [6]: 291.8 ± 48.5 mg·h/dL
Gmax after glimepiride treatment [6]: 134.4 ± 26.9 mg/dL
Reduction of Gmax [6]: 68.9 ± 25.1 mg/dL
Reduction of mean Cmax with OJS compared to glimepiride monotherapy [2]: approximately 16.86%
CL/F [2, 7]: 3.68 ± 1.54 L/h
Tmax ([2]; glimepiride 4 mg qd alone, day 2, plasma, N = 16): 4.5 (2.0–5.0) h
CL/F [2, 8]: 3.28 ± 1.16 L/h
t1/2,0–24 h [2, 8]: 8.53 ± 4.69 h
Geometric mean ratio of AUC0–24 h (%, 90% CI) [2]: 86.43 (77.56–96.31) %
Geometric mean ratio of AUC0–48 h (%, 90% CI) [2]: 86.98 (77.49–97.63) %
Geometric mean ratio of AUCinf (%, 90% CI) [2]: 89.15 (81.72–97.26) %
Geometric mean ratio of Cmax (%, 90% CI) [2]: 83.14 (69.96–98.81) %
Geometric mean ratio of AUC0–24 h (%, 90% CI) ([2]; listed as glimepiride): 86.43 (77.56, 96.31) %
Geometric mean ratio of Cmax (%, 90% CI) ([2]; listed as glimepiride): 83.14 (69.96, 98.81) %
AUC(0-inf) [2, 11]: 1380 ± 507 ng·h/mL
Cmax [2, 11]: 251 ± 87 ng/mL
AUC(0-t) ([2]; male, human, plasma, oral, 4 mg, AUC0–24 h, glimepiride 4 mg qd alone, N = 16): 1280 ± 483 ng·h/mL
AUC(0-t) ([2]; male, human, plasma, oral, 4 mg, AUC0–48 h, glimepiride 4 mg qd alone, N = 16): 1300 ± 519 ng·h/mL
Tmax ([2]; male, human, plasma, oral, 4 mg, Tmax, glimepiride 4 mg qd alone, day 2, plasma, N = 16): 4.3 h
half-life ([2]; male, human, plasma, oral, 4 mg, t1/2,0–24 h, glimepiride 4 mg qd alone, N = 16): 8.5 h
half-life ([2]; male, human, plasma, oral, 4 mg, t1/2,0–48 h, glimepiride 4 mg qd alone, N = 16): 8.73 ± 4.78 h
AUC(0-t) ([2]; male, human, plasma, oral, AUC0–24 h, glimepiride 4 mg qd + OJS 4.35 g tid, N = 13): 1130 ± 406 ng·h/mL
AUC(0-t) ([2]; male, human, plasma, oral, AUC0–48 h, glimepiride 4 mg qd + OJS 4.35 g tid, N = 13): 1160 ± 468 ng·h/mL
Tmax ([2]; male, human, plasma, oral, Tmax, glimepiride 4 mg qd + OJS 4.35 g tid, day 10, plasma, N = 13): 5 h
half-life ([2]; male, human, plasma, oral, t1/2,0–24 h, glimepiride 4 mg qd + OJS 4.35 g tid, N = 13): 10.2 ± 4.84 h
half-life ([2]; male, human, plasma, oral, t1/2,0–48 h, glimepiride 4 mg qd + OJS 4.35 g tid, N = 13): 9.33 ± 3.02 h
Metabolic ratio (M1 AUC0–24 h / glimepiride AUC0–24 h), co-administration versus glimepiride alone ([2]; p = 0.1209): not significantly different

Cc1ccc(-c2cc(C(F)(F)F)nn2-c2ccc(S(N)(=O)=O)cc2)cc1 [celecoxib]
Decrease of AUC ([3]; co-administration with OJS): 11.5%
Decrease of Cmax ([3]; co-administration with OJS): 27.5%

Reference: paper PMC12267423, “Comparisons of pharmacokinetics of glimepiride in combination with Ojeok-san versus glimepiride alone: an open-label, one-sequence, two-treatment controlled clinical study” (Scientific Reports, 2025)
